Starred links: 1 amine or outer side, 2 acyl side, 3 side chain; linkers in the order of their positions; H or OH if unused. Positions of bridges follow the written chain, without caps; N, C: chain ends. Non-standard residues stand in square brackets, D forms with d. Residues, ends and D or L forms follow the SMILES beside them. *: point of attachment. hPhe(3-Cl-4-CF3) = N[C@@H](CCc1ccc(C(F)(F)F)c(Cl)c1)C(=O)O; hPhe(3-F,4-CF3) = N[C@@H](CCc1ccc(C(F)(F)F)c(F)c1)C(=O)O; NMePhe(4-CF3) = CN[C@@H](Cc1ccc(C(F)(F)F)cc1)C(=O)O; hPhe(4-CF3) = N[C@@H](CCc1ccc(C(F)(F)F)cc1)C(=O)O; NEtPhe(4-Cl) = CCN[C@@H](Cc1ccc(Cl)cc1)C(=O)O; NMeAbu(4,4,4-F3) = CN[C@@H](CC(F)(F)F)C(=O)O; NMePhe(4-Cl) = CN[C@@H](Cc1ccc(Cl)cc1)C(=O)O; NMePhe(4-Me) = CN[C@@H](Cc1ccc(C)cc1)C(=O)O; NMedβ3hAla = C[C@H](CC(=O)[*:2])N(C)[*:1]; NMeGly(cPent) = CN[C@H](C(=O)O)C1CCCC1; Pro(4,4-F2) = O=C(O)[C@@H]1CC(F)(F)CN1; NMeCha = CN[C@@H](CC1CCCCC1)C(=O)O; NMeChg = CN[C@H](C(=O)O)C1CCCCC1; d(β3hL) = CC(C)C[C@@H](N)CC(=O)O; NMeD = CN[C@@H](CC(=O)O)C(=O)O; NMeL = CN[C@@H](CC(C)C)C(=O)O; NMeV = CN[C@H](C(=O)O)C(C)C; d(β3hA) = C[C@@H](N)CC(=O)O; Iva = CC[C@](C)(N)C(=O)O; Morpholide = C1CN(*)CCO1; NMeA = CN[C@@H](C)C(=O)O; NMeAib = CNC(C)(C)C(=O)O; Nle = CCCC[C@H](N)C(=O)O; Piperidide = C1CCN(*)CC1; Pyrrolidide = C1CCN(*)C1; dNMeA = CN[C@H](C)C(=O)O; Ac5c = NC1(C(=O)O)CCCC1; Aze = O=C(O)[C@@H]1CCN1; Sar = CNCC(=O)O
biological target: T1, Kras and SOS1 (biotin-tagged human Kras loaded with GDP, His-tagged human SOS1) (Homo sapiens, UniProt P01116, G12D); assay: Protein-protein interaction inhibition between Kras and SOS1 (KrasGl2D-SOS PPI) using AlphaScreen; type: binding; conditions: AlphaScreen; biotin-tagged human Kras loaded with GDP, His-tagged human SOS1; read-out: KRAS G12D-SOS PPI IC50
T1 construct: made in house; host or cells: E. coli (stated for Kras only)
T1 sequence (P01116 1-188 isoform P01116-2 G12D): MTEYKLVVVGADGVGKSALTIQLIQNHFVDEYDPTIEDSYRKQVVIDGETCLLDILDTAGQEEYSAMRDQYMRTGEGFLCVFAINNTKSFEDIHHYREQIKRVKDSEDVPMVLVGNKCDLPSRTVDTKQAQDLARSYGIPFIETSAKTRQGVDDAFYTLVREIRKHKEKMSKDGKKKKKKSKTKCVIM
Outline: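 Binding between SOS1 and Kras is detected as bead-proximity luminescence: illuminate Ni-conjugated donors (680 nm), collect 520-620 nm emission from streptavidin-conjugated acceptors; Kras carries biotin and GDP loaded after purification, SOS1 carries a His tag.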

Row | SMILES | IC50 [nM]
1 | CC[C@H](C)[C@@H]1NC(=O)[C@H](CC(F)(F)F)N(C)C(=O)C[C@@H](C(=O)N2CCOCC2)N(C)C(=O)[C@H](C2CCCCC2)N(C)C(=O)C2(CCCC2)NC(=O)[C@@H]2CC(F)(F)CN2C(=O)[C@H](CCc2ccc(C(F)(F)F)c(Cl)c2)NC(=O)CN(C)C(=O)[C@H](Cc2ccc(C(F)(F)F)cc2)N(C)C(=O)CN(C)C(=O)CN(C)C1=O [Compound 1182] ([NMeAbu(4,4,4-F3)]I[Sar][Sar][NMePhe(4-CF3)][Sar][hPhe(3-Cl-4-CF3)][Pro(4,4-F2)][Ac5c][NMeChg][NMeD]-Morpholide; lactam N-11) | 0.56
2 | CCCC[C@@H]1NC(=O)[C@H](CCc2ccc(C(F)(F)F)c(Cl)c2)NC(=O)CN(C)C(=O)[C@H](Cc2ccc(Cl)cc2)N(CC)C(=O)CN(C)C(=O)CN(C)C(=O)[C@H]([C@@H](C)CC)NC(=O)[C@H](CC(C)C)N(C)C(=O)C[C@@H](C(=O)N2CCCCC2)N(C)C(=O)[C@H](CC(C)C)NC(=O)C(C)(C)N(C)C1=O [Compound 895] ([NMeL]I[Sar][Sar][NEtPhe(4-Cl)][Sar][hPhe(3-Cl-4-CF3)][Nle][NMeAib]L[NMeD]-Piperidide; lactam N-11) | 8.4
3 | CC[C@H](C)[C@@H]1NC(=O)[C@H](CC(F)(F)F)N(C)C(=O)C[C@@H](C(=O)N2CCCC2)N(C)C(=O)[C@H](C2CCCCC2)N(C)C(=O)C2(CCCC2)NC(=O)[C@@H]2CC(F)(F)CN2C(=O)[C@H](CCc2ccc(C(F)(F)F)c(Cl)c2)NC(=O)CN(C)C(=O)[C@H](Cc2ccc(C)cc2)N(C)C(=O)CN(C)C(=O)CN(C)C1=O [Compound 1245] ([NMeAbu(4,4,4-F3)]I[Sar][Sar][NMePhe(4-Me)][Sar][hPhe(3-Cl-4-CF3)][Pro(4,4-F2)][Ac5c][NMeChg][NMeD]-Pyrrolidide; lactam N-11) | 0.54
4 | CC[C@H](C)[C@@H]1NC(=O)[C@H](CC(C)C)N(C)C(=O)C[C@@H](C)N(C)C(=O)[C@H](CC(C)C)NC(=O)C(C)(C)N(C)C(=O)[C@H](CC(C)C)NC(=O)[C@H](CCc2ccc(C(F)(F)F)c(F)c2)NC(=O)CN(C)C(=O)[C@H](CC2CCCCC2)N(C)C(=O)CN(C)C(=O)[C@@H]2CCN2C1=O [Compound 905] (cyclo([Aze][Sar][NMeCha][Sar][hPhe(3-F,4-CF3)]L[NMeAib]L[NMedβ3hAla][NMeL]I)) | 180
5 | CC[C@H](C)[C@@H]1NC(=O)[C@H](CC(C)C)N(C)C(=O)C[C@@H](C)NC(=O)[C@H](C(C)C)N(C)C(=O)[C@](C)(CC)NC(=O)[C@@H]2CCCN2C(=O)[C@H](CCc2ccc(C(F)(F)F)c(Cl)c2)NC(=O)CN(C)C(=O)[C@H](CC2CCCCC2)N(C)C(=O)CN(C)C(=O)CN(C)C1=O [Compound 149] (cyclo(I[Sar][Sar][NMeCha][Sar][hPhe(3-Cl-4-CF3)]P[Iva][NMeV][d(β3hA)][NMeL])) | 51
6 | CC[C@H](C)[C@@H]1NC(=O)[C@H](C)N(C)C(=O)C[C@@H](C(=O)N2CCCC2)NC(=O)[C@H](CC(C)C)N(C)C(=O)[C@H](CC2CCCCC2)N(C)C(=O)[C@H](CC(C)C)NC(=O)[C@H](CCc2ccc(C(F)(F)F)cc2)NC(=O)CN(C)C(=O)[C@H](Cc2ccc(Cl)cc2)N(C)C(=O)CN(C)C(=O)CN(C)C1=O [Compound 536] ([NMeA]I[Sar][Sar][NMePhe(4-Cl)][Sar][hPhe(4-CF3)]L[NMeCha][NMeL]D-Pyrrolidide; lactam N-11) | 230
7 | CC[C@H](C)[C@@H]1NC(=O)[C@H](C)N(C)C(=O)C[C@@H](C)NC(=O)[C@H](C2CCCC2)N(C)C(=O)C2(CCCC2)NC(=O)[C@@H]2CCCN2C(=O)[C@H](CCc2ccc(C(F)(F)F)c(Cl)c2)NC(=O)[C@@H](C)N(C)C(=O)[C@H](CC2CCCCC2)N(C)C(=O)CN(C)C(=O)CN(C)C1=O [Compound 1535] (cyclo([Ac5c][NMeGly(cPent)][d(β3hA)][NMeA]I[Sar][Sar][NMeCha][dNMeA][hPhe(3-Cl-4-CF3)]P)) | 41
8 | CC[C@H](C)[C@@H]1NC(=O)[C@H](CC(C)C)N(C)C(=O)C[C@@H](CC(C)C)NC(=O)[C@H](C(C)C)N(C)C(=O)C2(CCCC2)NC(=O)[C@@H]2CCCN2C(=O)[C@H](CCc2ccc(C(F)(F)F)c(Cl)c2)NC(=O)CN(C)C(=O)[C@H](CC2CCCCC2)N(C)C(=O)CN(C)C(=O)CN(C)C1=O [Compound 1032] (cyclo([Ac5c][NMeV][d(β3hL)][NMeL]I[Sar][Sar][NMeCha][Sar][hPhe(3-Cl-4-CF3)]P)) | 60
9 | CC[C@H](C)[C@@H]1NC(=O)[C@H](C)N(C)C(=O)C[C@@H](C(=O)N2CCCCC2)N(C)C(=O)[C@H](C(C)C)N(C)C(=O)C2(CCCC2)NC(=O)[C@@H]2CCCN2C(=O)[C@H](CCc2ccc(C(F)(F)F)c(Cl)c2)NC(=O)CN(C)C(=O)[C@H](CC2CCCCC2)N(C)C(=O)[C@@H]2CCCN2C(=O)CN(C)C1=O [Compound 1121] ([NMeA]I[Sar]P[NMeCha][Sar][hPhe(3-Cl-4-CF3)]P[Ac5c][NMeV][NMeD]-Piperidide; lactam N-11) | 1.4

From patent US12371454B2, “Cyclic peptide compound having Kras inhibitory action” (priority 2019, dated 2025)
